The test system of series [1] is Trypanosoma cruzi. Put plainly: Anti-trypanosomal activity against Trypanosoma cruzi Y epimastigote forms assessed as inhibition of parasite growth after 72 hrs by microplate reader based assay. The settings on record: for IC50: Trypanosoma cruzi, Y, 72 h. The format is functional, organism-based.
Series [2] relates to Trypanosoma cruzi. Put plainly: Anti-trypanosomal activity against Trypanosoma cruzi Silvio X10 cl1 epimastigote forms assessed as inhibition of parasite growth after 72 hrs by microplate reader based assay. The conditions noted are these: for IC50: Trypanosoma cruzi, Silvio X10 cl1, 72 h. The format is functional, organism-based.
In series [3] the test system is Trypanosoma cruzi. As to the kind of experiment: Anti-trypanosomal activity against Trypanosoma cruzi Bug 2149 cl10 epimastigote forms assessed as inhibition of parasite growth after 72 hrs by microplate reader based assay. The conditions noted are these: for IC50: Trypanosoma cruzi, Bug 2149 cl10, CL1-0, 72 h. The format is functional, organism-based.
Series [4] is described as follows: Cytotoxicity against human LL24 cells assessed as inhibition of cell growth after 24 hrs by MTT assay. The format is cell-based. The settings on record: LL24, 24 h. A general note: Tetrazolium assays rely on reduction of a dye to a coloured formazan, in cell work by metabolically active cells.
The nature of series [5]: Selectivity index, ratio of IC50 for human LL24 cells to IC50 for Trypanosoma cruzi Y epimastigote forms. The settings on record: read-out: Ratio IC50. The format is toxicity, cell-based.
A short description of series [6]: Selectivity index, ratio of IC50 for human LL24 cells to IC50 for Trypanosoma cruzi Silvio X10 cl1 epimastigote forms. The settings on record: read-out: Ratio IC50. The format is toxicity, cell-based.
Series [7] in a line: Selectivity index, ratio of IC50 for human LL24 cells to IC50 for Trypanosoma cruzi Bug 2149 cl10. The format is toxicity, cell-based. The conditions noted are these: read-out: Ratio IC50.

Results on eight compounds are retold here after ChEMBL document CHEMBL3414454, “Designing and exploring active N'-[(5-nitrofuran-2-yl) methylene] substituted hydrazides against three Trypanosoma cruzi strains more prevalent in Chagas disease patients” (Eur J Med Chem, 2015).

Where only a bound is given, the exact number is not on record here.

As to `CC(C)(C)c1ccc(C(=O)N/N=C/c2ccc([N+](=O)[O-])o2)cc1`, the log1/IC50 was found to be 5.03 in the series with Trypanosoma cruzi [1], 4.86 with Trypanosoma cruzi [2] and 4.86 in the series with Trypanosoma cruzi [3]. Further, the IC50 (commonly the midpoint of a concentration-inhibition curve) with Trypanosoma cruzi [1] was 9.43 µM; in the series on Trypanosoma cruzi [2] it was 13.7 µM; in the series on Trypanosoma cruzi [3] it was 13.7 µM; in series [4], above 200 µM. The selectivity ratio in series [5] is above 21; in series [6], above 15; in series [7] it was above 15.
Turning to `CCCOc1ccc(C(=O)N/N=C/c2ccc([N+](=O)[O-])o2)cc1`, the log1/IC50 with Trypanosoma cruzi [1] was determined as 5.13; with Trypanosoma cruzi [2], 4.89; in the series on Trypanosoma cruzi [3] it was 5.01. The IC50 was 7.33 µM with Trypanosoma cruzi [1], 12.8 µM in the series with Trypanosoma cruzi [2], 9.72 µM in the series on Trypanosoma cruzi [3] and above 200 µM in series [4]. The selectivity ratio in series [5] is above 27; in series [6] it was above 16; in series [7], above 21.
For `CCCCOc1ccc(C(=O)N/N=C/c2ccc([N+](=O)[O-])o2)cc1`, the log1/IC50 in the series with Trypanosoma cruzi [1] amounted to 5.46; in the series on Trypanosoma cruzi [2], 5.29; in the series with Trypanosoma cruzi [3], 5.37. Further, the IC50 in the series with Trypanosoma cruzi [1] is 3.47 µM; with Trypanosoma cruzi [2], 5.07 µM; in the series on Trypanosoma cruzi [3], 4.25 µM; in series [4] it was above 200 µM. Also, the values for the selectivity ratio in series [5], in series [6] and in series [7] were above 58, above 39 and above 47, respectively.
As to `CCCCNc1ccc(C(=O)N/N=C/c2ccc([N+](=O)[O-])o2)cc1`, the log1/IC50 in the series on Trypanosoma cruzi [1] was found to be 5.51; in the series with Trypanosoma cruzi [2], 5.36; with Trypanosoma cruzi [3], 5.37. In addition, the IC50 turned out to be 3.39 µM in the series on Trypanosoma cruzi [1], 4.34 µM in the series with Trypanosoma cruzi [2], 4.22 µM in the series on Trypanosoma cruzi [3] and 47 µM in series [4]. Besides, the selectivity ratio in series [5] is 14; in series [6] it was 11; in series [7] it was 11.
As for `O=C(N/N=C/c1ccc([N+](=O)[O-])o1)c1ccc(-c2ccccc2)cc1`, the results for the log1/IC50 with Trypanosoma cruzi [1], with Trypanosoma cruzi [2] and in the series on Trypanosoma cruzi [3] were 5.93, 5.5 and 5.74, respectively. The IC50 in the series on Trypanosoma cruzi [1] is 1.17 µM; in the series with Trypanosoma cruzi [2], 3.17 µM; with Trypanosoma cruzi [3] it was 1.81 µM; in series [4], above 200 µM. Also, the selectivity ratio in series [5] is above 176; in series [6] it was above 63; in series [7], above 110.
Consider `O=C(N/N=C/c1ccc([N+](=O)[O-])o1)c1ccccc1Oc1ccccc1`, for which the log1/IC50 turned out to be 5.11 in the series with Trypanosoma cruzi [1], 4.91 with Trypanosoma cruzi [2] and 4.91 in the series on Trypanosoma cruzi [3]. The IC50 is 7.79 µM with Trypanosoma cruzi [1], 12.3 µM with Trypanosoma cruzi [2], 12.2 µM in the series on Trypanosoma cruzi [3] and above 200 µM in series [4]. Besides, the selectivity ratio in series [5] is above 26; in series [6] it was above 16; in series [7], above 16.
Turning to `CC1CS(=O)(=O)CCN1/N=C/c1ccc([N+](=O)[O-])o1` (centres undefined) [NIFURTIMOX], the log1/IC50 with Trypanosoma cruzi [1] came to 4.89; with Trypanosoma cruzi [2], 5.22; in the series on Trypanosoma cruzi [3], 5.14. Further, the IC50 with Trypanosoma cruzi [1] was 12.8 µM; in the series with Trypanosoma cruzi [3], 7.32 µM; in series [4] it was above 200 µM. Moreover, the selectivity ratio was above 16 in series [5], above 33 in series [6] and above 27 in series [7].
Turning to `CC(=O)N/N=C/c1ccc([N+](=O)[O-])o1` [NIHYDRAZONE], the log1/IC50 in the series on Trypanosoma cruzi [1] was found to be 4.86; with Trypanosoma cruzi [2], 4.57; in the series with Trypanosoma cruzi [3], 4.8. Also, the half-inhibitory concentration (IC50) in the series with Trypanosoma cruzi [1] was 13.7 µM; in the series on Trypanosoma cruzi [2] it was 27.1 µM; with Trypanosoma cruzi [3], 15.8 µM; in series [4], above 200 µM. The selectivity ratio in series [5] was above 15; in series [6], above 7; in series [7] it was above 13.
